Data reported in the CheMixHub viscosity set.
± gives the uncertainty stated by the source.

Test: xn = mol fraction of the nth substance listed

## ClC(Cl)Cl + CC(C)=O
293.15 K, 101 kPa, x1 = 0.157
  viscosity: 0.3875 ± 0.01 mPa·s
293.15 K, 101 kPa, x1 = 0.362
  viscosity: 0.466 ± 0.012 mPa·s
293.15 K, 101 kPa, x1 = 0.483
  viscosity: 0.511 ± 0.014 mPa·s
293.15 K, 101 kPa, x1 = 0.609
  viscosity: 0.5471 ± 0.015 mPa·s
293.15 K, 101 kPa, x1 = 0.824
  viscosity: 0.5836 ± 0.015 mPa·s
293.15 K, 101 kPa, x2 = 0.112
  viscosity: 0.565 ± 0.006 mPa·s
293.15 K, 101 kPa, x2 = 0.2
  viscosity: 0.561 ± 0.006 mPa·s
293.15 K, 101 kPa, x2 = 0.3098
  viscosity: 0.543 ± 0.006 mPa·s
293.15 K, 101 kPa, x2 = 0.415
  viscosity: 0.523 ± 0.005 mPa·s
293.15 K, 101 kPa, x2 = 0.502
  viscosity: 0.495 ± 0.005 mPa·s
293.15 K, 101 kPa, x2 = 0.6075
  viscosity: 0.456 ± 0.005 mPa·s
293.15 K, 101 kPa, x2 = 0.715
  viscosity: 0.421 ± 0.005 mPa·s
293.15 K, 101 kPa, x2 = 0.81
  viscosity: 0.384 ± 0.004 mPa·s
293.15 K, 101 kPa, x2 = 0.9075
  viscosity: 0.349 ± 0.004 mPa·s
293.15 K, 101.33 kPa, x1 = 0.1193
  viscosity: 0.357 ± 0.009 mPa·s
293.15 K, 101.33 kPa, x1 = 0.2623
  viscosity: 0.408 ± 0.011 mPa·s
293.15 K, 101.33 kPa, x1 = 0.3723
  viscosity: 0.453 ± 0.012 mPa·s
293.15 K, 101.33 kPa, x1 = 0.5128
  viscosity: 0.508 ± 0.013 mPa·s
293.15 K, 101.33 kPa, x1 = 0.6064
  viscosity: 0.538 ± 0.014 mPa·s
293.15 K, 101.33 kPa, x1 = 0.7001
  viscosity: 0.56 ± 0.015 mPa·s
293.15 K, 101.33 kPa, x1 = 0.8577
  viscosity: 0.583 ± 0.015 mPa·s
293.16 K, 101 kPa, x1 = 0.1193
  viscosity: 0.357 ± 0.01 mPa·s
293.16 K, 101 kPa, x1 = 0.2623
  viscosity: 0.408 ± 0.011 mPa·s
293.16 K, 101 kPa, x1 = 0.3723
  viscosity: 0.453 ± 0.012 mPa·s
293.16 K, 101 kPa, x1 = 0.5128
  viscosity: 0.508 ± 0.014 mPa·s
293.16 K, 101 kPa, x1 = 0.6064
  viscosity: 0.538 ± 0.014 mPa·s
293.16 K, 101 kPa, x1 = 0.7001
  viscosity: 0.56 ± 0.015 mPa·s
293.16 K, 101 kPa, x1 = 0.8577
  viscosity: 0.583 ± 0.015 mPa·s
293.35 K, 101 kPa, x1 = 0.75
  viscosity: 0.6037 ± 0.016 mPa·s
293.45 K, 101 kPa, x1 = 0.5
  viscosity: 0.5307 ± 0.014 mPa·s
298.15 K, 101 kPa, x1 = 0.2
  viscosity: 0.353 ± 0.0052 mPa·s
298.15 K, 101 kPa, x1 = 0.4
  viscosity: 0.424 ± 0.0053 mPa·s
298.15 K, 101 kPa, x1 = 0.6
  viscosity: 0.486 ± 0.0054 mPa·s
298.15 K, 101 kPa, x1 = 0.8
  viscosity: 0.512 ± 0.0054 mPa·s
298.15 K, 101 kPa, x2 = 0.0555
  viscosity: 0.5334 ± 0.0055 mPa·s
298.15 K, 101 kPa, x2 = 0.112
  viscosity: 0.538 ± 0.006 mPa·s
298.15 K, 101 kPa, x2 = 0.1361
  viscosity: 0.5423 ± 0.0055 mPa·s
298.15 K, 101 kPa, x2 = 0.2
  viscosity: 0.534 ± 0.006 mPa·s
298.15 K, 101 kPa, x2 = 0.2192
  viscosity: 0.5338 ± 0.0055 mPa·s
298.15 K, 101 kPa, x2 = 0.2437
  viscosity: 0.536 ± 0.0055 mPa·s
298.15 K, 101 kPa, x2 = 0.3023
  viscosity: 0.5258 ± 0.0054 mPa·s
298.15 K, 101 kPa, x2 = 0.3098
  viscosity: 0.516 ± 0.005 mPa·s
298.15 K, 101 kPa, x2 = 0.3737
  viscosity: 0.508 ± 0.0053 mPa·s
298.15 K, 101 kPa, x2 = 0.415
  viscosity: 0.495 ± 0.005 mPa·s
298.15 K, 101 kPa, x2 = 0.4585
  viscosity: 0.4864 ± 0.005 mPa·s
298.15 K, 101 kPa, x2 = 0.496
  viscosity: 0.4726 ± 0.005 mPa·s
298.15 K, 101 kPa, x2 = 0.502
  viscosity: 0.47 ± 0.005 mPa·s
298.15 K, 101 kPa, x2 = 0.552
  viscosity: 0.4529 ± 0.0048 mPa·s
298.15 K, 101 kPa, x2 = 0.5688
  viscosity: 0.4495 ± 0.0047 mPa·s
298.15 K, 101 kPa, x2 = 0.6075
  viscosity: 0.434 ± 0.005 mPa·s
298.15 K, 101 kPa, x2 = 0.6721
  viscosity: 0.411 ± 0.0044 mPa·s
298.15 K, 101 kPa, x2 = 0.6793
  viscosity: 0.4052 ± 0.0044 mPa·s
298.15 K, 101 kPa, x2 = 0.6886
  viscosity: 0.4042 ± 0.0043 mPa·s
298.15 K, 101 kPa, x2 = 0.715
  viscosity: 0.402 ± 0.004 mPa·s
298.15 K, 101 kPa, x2 = 0.7302
  viscosity: 0.3926 ± 0.0042 mPa·s
298.15 K, 101 kPa, x2 = 0.7676
  viscosity: 0.3817 ± 0.0041 mPa·s
298.15 K, 101 kPa, x2 = 0.8067
  viscosity: 0.3628 ± 0.004 mPa·s
298.15 K, 101 kPa, x2 = 0.81
  viscosity: 0.367 ± 0.004 mPa·s
298.15 K, 101 kPa, x2 = 0.8196
  viscosity: 0.3551 ± 0.004 mPa·s
298.15 K, 101 kPa, x2 = 0.8757
  viscosity: 0.3425 ± 0.0038 mPa·s
298.15 K, 101 kPa, x2 = 0.9075
  viscosity: 0.334 ± 0.004 mPa·s
298.15 K, 101 kPa, x2 = 0.9182
  viscosity: 0.3261 ± 0.0037 mPa·s
298.15 K, 101 kPa, x2 = 0.9233
  viscosity: 0.3206 ± 0.0037 mPa·s
298.15 K, 101 kPa, x2 = 0.963
  viscosity: 0.3092 ± 0.0036 mPa·s
298.15 K, 101.33 kPa, x1 = 0.1483
  viscosity: 0.356 ± 0.009 mPa·s
298.15 K, 101.33 kPa, x1 = 0.2721
  viscosity: 0.4 ± 0.01 mPa·s
298.15 K, 101.33 kPa, x1 = 0.3885
  viscosity: 0.445 ± 0.012 mPa·s
298.15 K, 101.33 kPa, x1 = 0.4985
  viscosity: 0.485 ± 0.013 mPa·s
298.15 K, 101.33 kPa, x1 = 0.6363
  viscosity: 0.527 ± 0.014 mPa·s
298.15 K, 101.33 kPa, x1 = 0.7114
  viscosity: 0.543 ± 0.014 mPa·s
298.15 K, 101.33 kPa, x1 = 0.8834
  viscosity: 0.557 ± 0.014 mPa·s
298.16 K, 101 kPa, x1 = 0.1483
  viscosity: 0.356 ± 0.01 mPa·s
298.16 K, 101 kPa, x1 = 0.2721
  viscosity: 0.4 ± 0.011 mPa·s
298.16 K, 101 kPa, x1 = 0.3885
  viscosity: 0.445 ± 0.012 mPa·s
298.16 K, 101 kPa, x1 = 0.4985
  viscosity: 0.485 ± 0.013 mPa·s
298.16 K, 101 kPa, x1 = 0.6363
  viscosity: 0.527 ± 0.014 mPa·s
298.16 K, 101 kPa, x1 = 0.7114
  viscosity: 0.543 ± 0.014 mPa·s
298.16 K, 101 kPa, x1 = 0.8834
  viscosity: 0.557 ± 0.015 mPa·s
302.95 K, 101 kPa, x1 = 0.25
  viscosity: 0.3982 ± 0.011 mPa·s
303.15 K, 101 kPa, x2 = 0.112
  viscosity: 0.512 ± 0.005 mPa·s
303.15 K, 101 kPa, x2 = 0.2
  viscosity: 0.507 ± 0.005 mPa·s
303.15 K, 101 kPa, x2 = 0.3098
  viscosity: 0.488 ± 0.005 mPa·s
303.15 K, 101 kPa, x2 = 0.415
  viscosity: 0.468 ± 0.005 mPa·s
303.15 K, 101 kPa, x2 = 0.502
  viscosity: 0.447 ± 0.005 mPa·s
303.15 K, 101 kPa, x2 = 0.6075
  viscosity: 0.412 ± 0.004 mPa·s
303.15 K, 101 kPa, x2 = 0.715
  viscosity: 0.383 ± 0.004 mPa·s
303.15 K, 101 kPa, x2 = 0.81
  viscosity: 0.35 ± 0.004 mPa·s
303.15 K, 101 kPa, x2 = 0.9075
  viscosity: 0.322 ± 0.004 mPa·s
303.15 K, 101.33 kPa, x1 = 0.1041
  viscosity: 0.326 ± 0.009 mPa·s
303.15 K, 101.33 kPa, x1 = 0.1842
  viscosity: 0.352 ± 0.009 mPa·s
303.15 K, 101.33 kPa, x1 = 0.2689
  viscosity: 0.381 ± 0.01 mPa·s
303.15 K, 101.33 kPa, x1 = 0.3733
  viscosity: 0.424 ± 0.011 mPa·s
303.15 K, 101.33 kPa, x1 = 0.5487
  viscosity: 0.488 ± 0.013 mPa·s
303.15 K, 101.33 kPa, x1 = 0.6876
  viscosity: 0.514 ± 0.013 mPa·s
303.15 K, 101.33 kPa, x1 = 0.8278
  viscosity: 0.54 ± 0.014 mPa·s
303.16 K, 101 kPa, x1 = 0.1041
  viscosity: 0.326 ± 0.009 mPa·s
303.16 K, 101 kPa, x1 = 0.1842
  viscosity: 0.352 ± 0.009 mPa·s
303.16 K, 101 kPa, x1 = 0.2689
  viscosity: 0.381 ± 0.01 mPa·s
303.16 K, 101 kPa, x1 = 0.3733
  viscosity: 0.424 ± 0.011 mPa·s
303.16 K, 101 kPa, x1 = 0.5487
  viscosity: 0.488 ± 0.013 mPa·s
303.16 K, 101 kPa, x1 = 0.6876
  viscosity: 0.514 ± 0.014 mPa·s
303.16 K, 101 kPa, x1 = 0.8278
  viscosity: 0.54 ± 0.014 mPa·s
303.55 K, 101 kPa, x1 = 0.75
  viscosity: 0.5427 ± 0.014 mPa·s
303.65 K, 101 kPa, x1 = 0.5
  viscosity: 0.4779 ± 0.013 mPa·s
308.15 K, 101 kPa, x2 = 0.112
  viscosity: 0.487 ± 0.005 mPa·s
308.15 K, 101 kPa, x2 = 0.2
  viscosity: 0.482 ± 0.005 mPa·s
308.15 K, 101 kPa, x2 = 0.3098
  viscosity: 0.467 ± 0.005 mPa·s
308.15 K, 101 kPa, x2 = 0.415
  viscosity: 0.446 ± 0.005 mPa·s
308.15 K, 101 kPa, x2 = 0.502
  viscosity: 0.426 ± 0.005 mPa·s
308.15 K, 101 kPa, x2 = 0.6075
  viscosity: 0.398 ± 0.004 mPa·s
308.15 K, 101 kPa, x2 = 0.715
  viscosity: 0.365 ± 0.004 mPa·s
308.15 K, 101 kPa, x2 = 0.81
  viscosity: 0.336 ± 0.004 mPa·s
308.15 K, 101 kPa, x2 = 0.9075
  viscosity: 0.312 ± 0.004 mPa·s
311.65 K, 101 kPa, x1 = 0.75
  viscosity: 0.5052 ± 0.013 mPa·s
313.15 K, 101 kPa, x1 = 0.157
  viscosity: 0.3324 ± 0.009 mPa·s
313.15 K, 101 kPa, x1 = 0.25
  viscosity: 0.366 ± 0.0098 mPa·s
313.15 K, 101 kPa, x1 = 0.362
  viscosity: 0.394 ± 0.011 mPa·s
313.15 K, 101 kPa, x1 = 0.483
  viscosity: 0.4257 ± 0.011 mPa·s
313.15 K, 101 kPa, x1 = 0.609
  viscosity: 0.4577 ± 0.012 mPa·s
313.15 K, 101 kPa, x1 = 0.824
  viscosity: 0.4867 ± 0.013 mPa·s
313.85 K, 101 kPa, x1 = 0.5
  viscosity: 0.4341 ± 0.012 mPa·s
321.65 K, 101 kPa, x1 = 0.75
  viscosity: 0.4644 ± 0.012 mPa·s
